The source of these data is patent US20240228504A1, “SUBSTITUTED TRICYCLIC AMIDES, ANALOGUES THEREOF, AND METHODS USING SAME” (Arbutus Biopharma Corporation, priority 2020, published 2024).

Some results are limits rather than exact numbers.

One experiment concerns HBV rcDNA in HepDE19 cells. In words: HepDE19 assay with bDNA quantitation of HBV rcDNA. Format: cell-based, hepatitis B virus. The following applies: HepDE19 assay, inhibition of rcDNA formation, bDNA quantitation; read-out: DE-19bDNA EC50.
The EC50 is the concentration that produces a half-maximal response. Turning to `CN(C(=O)c1cc2ccccc2[nH]1)C1CCCc2[nH]c(=O)c3cc(F)c(F)cc3c21` (single isomer, unassigned) [Compound 466, N-(8,9-Difluoro-6-oxo-1,2,3,4,5,6-hexahydrophenanthridin-1-yl)-N-methyl-1H-indole-2-carboxamide], the EC50 was 2100 nM.

Consider `CN(C(=O)c1cc2ccccc2[nH]1)C1CCCc2[nH]c(=O)c3cc(F)c(F)cc3c21` (single isomer, unassigned) [Compound 467, N-(8,9-Difluoro-6-oxo-1,2,3,4,5,6-hexahydrophenanthridin-1-yl)-N-methyl-1H-indole-2-carboxamide], for which the EC50 was 10 nM.

Take `CN(C(=O)c1ccc2cn[nH]c2c1)C1COCc2[nH]c(=O)c3cc(F)ccc3c21` (single isomer, unassigned) [Compound 470, N-(8-fluoro-6-oxo-1,4,5,6-tetrahydro-2H-pyrano[3,4-c]isoquinolin-1-yl)-N-methyl-1H-indazole-6-carboxamide]: the EC50 was determined as 1100 nM.

For the molecule `CN(C(=O)c1ccc2c(c1)CCC2)C1CNCc2[nH]c(=O)c3cc(F)c(F)cc3c21` (single isomer, unassigned) [Compound 471, N-(8,9-difluoro-6-oxo-1,2,3,4,5,6-hexahydrobenzo[c][1,7]naphthyridin-1-yl)-N-methyl-2,3-dihydro-1H-indene-5-carboxamide], the EC50 was determined as 8700 nM.

With `CN(C(=O)c1ccc2c(c1)CCC2)C1CNCc2[nH]c(=O)c3cc(F)c(F)cc3c21` (single isomer, unassigned) [Compound 472, N-(8,9-difluoro-6-oxo-1,2,3,4,5,6-hexahydrobenzo[c][1,7]naphthyridin-1-yl)-N-methyl-2,3-dihydro-1H-indene-5-carboxamide], the EC50 was determined as 40 nM.

For `CN(C(=O)c1cc2ccccc2[nH]1)C1CCCc2[nH]c(=O)c3cc(F)ccc3c21` (single isomer, unassigned) [Compound 475, N-(8-Fluoro-6-oxo-1,2,3,4,5,6-hexahydrophenanthridin-1-yl)-N-methyl-1H-indole-2-carboxamide], the EC50 came to 1800 nM.

Regarding `CN(C(=O)c1cc2ccccc2[nH]1)C1CCCc2[nH]c(=O)c3cc(F)ccc3c21` (single isomer, unassigned) [Compound 476, N-(8-Fluoro-6-oxo-1,2,3,4,5,6-hexahydrophenanthridin-1-yl)-N-methyl-1H-indole-2-carboxamide], the EC50 came out at 20 nM.

In the case of `CN(C(=O)c1ccc2cn[nH]c2c1)C1CNCc2[nH]c(=O)c3cc(F)c(F)cc3c21` (single isomer, unassigned) [Compound 495, N-(8,9-difluoro-6-oxo-1,2,3,4,5,6-hexahydrobenzo[c][1,7]naphthyridin-1-yl)-N-methyl-1H-indazole-6-carboxamide], the EC50 was > 25000 nM.

As to `CN(C(=O)c1ccc2cn[nH]c2c1)C1CNCc2[nH]c(=O)c3cc(F)c(F)cc3c21` (single isomer, unassigned) [Compound 496, N-(8,9-difluoro-6-oxo-1,2,3,4,5,6-hexahydrobenzo[c][1,7]naphthyridin-1-yl)-N-methyl-1H-indazole-6-carboxamide], the EC50 was 4200 nM.

As for `CN(C(=O)c1cc2sc(F)cc2[nH]1)C1COCc2[nH]c(=O)c3cc(F)ccc3c21` (single isomer, unassigned) [Compound 497, 2-fluoro-N-(8-fluoro-6-oxo-1,4,5,6-tetrahydro-2H-pyrano[3,4-c]isoquinolin-1-yl)-N-methyl-4H-thieno[3,2-b]pyrrole-5-carboxamide], the EC50 turned out to be 1200 nM.

As to `CN(C(=O)c1cc2sc(F)cc2[nH]1)C1COCc2[nH]c(=O)c3cc(F)ccc3c21` (single isomer, unassigned) [Compound 498, 2-fluoro-N-(8-fluoro-6-oxo-1,4,5,6-tetrahydro-2H-pyrano[3,4-c]isoquinolin-1-yl)-N-methyl-4H-thieno[3,2-b]pyrrole-5-carboxamide], the EC50 came out at 80 nM.

As to `CN(C(=O)c1cc2sc(F)cc2[nH]1)C1CNCc2[nH]c(=O)c3cc(F)c(F)cc3c21` (single isomer, unassigned) [Compound 499, N-(8,9-difluoro-6-oxo-1,2,3,4,5,6-hexahydrobenzo[c][1,7]naphthyridin-1-y1)-2-fluoro-N-methyl-4H-thieno[3,2-b]pyrrole-5-carboxamide], the EC50 worked out at 20000 nM.

Regarding `CN(C(=O)c1cc2sc(F)cc2[nH]1)C1CNCc2[nH]c(=O)c3cc(F)c(F)cc3c21` (single isomer, unassigned) [Compound 500, N-(8,9-difluoro-6-oxo-1,2,3,4,5,6-hexahydrobenzo[c][1,7]naphthyridin-1-yl)-2-fluoro-N-methyl-4H-thieno[3,2-b]pyrrole-5-carboxamide], the EC50 turned out to be 30 nM.

Take `CN(C(=O)c1cc2cc(F)ccc2[nH]1)[C@@H]1CCC(O)c2[nH]c(=O)c3cc(F)c(F)cc3c21` (single isomer, unassigned) [Compound 501]: the EC50 was 10 nM.

Take `CN(C(=O)c1cc2cc(F)ccc2[nH]1)[C@@H]1CCC(O)c2[nH]c(=O)c3cc(F)c(F)cc3c21` (single isomer, unassigned) [Compound 502]: the EC50 turned out to be 30 nM.

Take `CN(C(=O)c1cc2ccccc2[nH]1)[C@@H]1CCC(O)c2[nH]c(=O)c3cc(F)c(F)cc3c21` (single isomer, unassigned) [Compound 504]: the EC50 came to 580 nM.

`CN(C(=O)c1cc2ccccc2[nH]1)[C@@H]1CCC(O)c2[nH]c(=O)c3cc(F)c(F)cc3c21` (single isomer, unassigned) [Compound 505]: the EC50 worked out at 50 nM.

As for `CN(C(=O)c1cc2ccccn2c1)C1CNCc2[nH]c(=O)c3cc(F)c(F)cc3c21` (single isomer, unassigned) [Compound 506, N-(8,9-Difluoro-6-oxo-1,2,3,4,5,6-hexahydrobenzo[c][1,7]naphthyridin-1-yl)-N-methylindolizine-2-carboxamide], the EC50 came to 22000 nM.

Regarding `CN(C(=O)c1cc2ccccn2c1)C1CNCc2[nH]c(=O)c3cc(F)c(F)cc3c21` (single isomer, unassigned) [Compound 507, N-(8,9-Difluoro-6-oxo-1,2,3,4,5,6-hexahydrobenzo[c][1,7]naphthyridin-1-yl)-N-methylindolizine-2-carboxamide], the EC50 came out at 60 nM.

Take `CN(C(=O)c1cc2c(Cl)cccn2c1)C1CNCc2[nH]c(=O)c3cc(F)c(F)cc3c21` (single isomer, unassigned) [Compound 508, 8-Chloro-N-(8,9-Difluoro-6-oxo-1,2,3,4,5,6-hexahydrobenzo[c][1,7]naphthyridin-1-yl)-N-methylindolizine-2-carboxamide]: the EC50 turned out to be 11600 nM.

Staying with this experiment, now noted: Hepatitis B virus, HepDE19, HepDE19 assay, inhibition of rcDNA formation, bDNA quantitation; read-out: DE-19bDNA EC50.
For the molecule `CN(C(=O)c1ccc2cn[nH]c2c1)C1COCc2[nH]c(=O)c3cc(F)ccc3c21` (single isomer, unassigned) [Compound 469, N-(8-fluoro-6-oxo-1,4,5,6-tetrahydro-2H-pyrano[3,4-c]isoquinolin-1-yl)-N-methyl-1H-indazole-6-carboxamide], the EC50 came to 2200 nM.

For `CN(C(=O)c1ccc2[nH]ncc2c1)C1CNCc2[nH]c(=O)c3cc(F)c(F)cc3c21` (single isomer, unassigned) [Compound 474, N-(8,9-difluoro-6-oxo-1,2,3,4,5,6-hexahydrobenzo[c][1,7]naphthyridin-1-yl)-N-methyl-1H-indazole-5-carboxamide], the EC50 was determined as 3800 nM.
